Measured values from US20180028516A1, “METHODS AND DEVICES FOR THE TREATMENT OF OCULAR DISEASES IN HUMAN SUBJECTS” (CLEARSIDE BIOMEDICAL, INC., priority 2012, published 2018).
Entries after “also recorded” stand apart in the source; their conditions may differ.

Experiments:
[1] = Ophthalmic examinations (slit lamp, fundus) and clinical observations after SCS TA (Example 9); format: in vivo, New Zealand White rabbit
Description: (§1) In this study, the ocular tolerability and toxicokinetics of suprachoroidal administration of triamcinolone acetonide (TA) using a microneedle in a GLP study in the New Zealand White rabbit.
(§2) On Day 0, New Zealand White (NZW) rabbits were administered a single bilateral supraehoroidal injection of vehicle, 3.2 mg (80 μL) or 5.2 mg (130 μL) of TA (Triesence®, Alcoa labs) using a 33 g 750 μm microneedle. Clinical observations, slit lamp biomicroscopy with McDonald-Shadduck scoring, intraocular pressure assessment (IOP), electroretinography (ERG), and systemic exposure were assessed up to 26 weeks post-dose. Animals were sacrificed on Day 1, Week 13, and Week 26 for macroscopic observations, ocular toxicokinetics, and ocular histopathology.

[2] = tested on: LPS-induced acute posterior uveitis; assay: Ocular inflammatory scores in LPS-induced porcine uveitis (Example 13); settings: for mean cumulative inflammatory scores compared with Group 1 (BSS IVT/vehicle SCS): Days 1, 2, and 3
Description: A totalof 20 domestic wearrling pigs (Sus sergfir domesticus), male or female, (12-20 kg) were used in this study. Only the left eye was tested in this study; the right eye was not injected, examined, or treated. All injections were performed with the pigs anesthetized (intramuscular Telazol-Ketamine-Xylazine and isoflorane in oxygen via mask) and the eve prepared aseptically (sterile 5% betadine solution followed by irrigation with sterile eyewash).
Twenty-four hours prior to SCS or IVT injection of TA or vehicle (Day-1), 100 ng of lipopolysaccharide (ITS; E. coli 055:B55; Sigma, Inc. St. Louis, Mo.) in 100 μL BSS (Balanced Salt Solution, Alcon Laboratories, Inc., Forth Worth, Tex.), was injected using a 27 gauge needle into the posterior central vitreous.
Twenty-four hours after the LPS injection (Day 0), 0.2 mg or 2.0 mg of commercially-available TA (Triesence®; Alcon Laboratories, Inc, Forth Worth, Tex.) or vehicle was injected either intravitreally (27 gauge needle) or into the SCS (33 gauge, 850 μm microneedle) in eyes prepared aseptically (Table 7). The dose of TA was selected to represent a typical therapeutic dose (e.g., 2.0 mg) and a dose 10 times less to compare therapeutic effect.
All injections were made superiorly, approximately 5-6 mm posterior to the limbus. […] TA was diluted using vehicle to provide a low dose (0.2 mg/100 μL) or high dose (2.0 mg/100 μL). The vehicle (100 uL) was also used in the control groups, but without TA.
A Hackett-McDonald microscopic ocular inflammatory scoring system, modified for use in pigs (instead of New Zealand White rabbits) as described below, was used to evaluate the ocular anterior segment and anterior vitreous. Scores of the conjunctiva (congestion, swelling, discharge, 0-4); aqueous flare (0-3); pupillary light reflex (0-2); iris involvement (0-4); cornea (involvement and area, 0-4); pannus (vascularization, 0-2); and anterior vitreal cellular infiltrate (0-4) were summed to provide a single inflammatory score for each animal for each examination. Using a portable slit lamp biomicroscope (Zeiss HSO-10, Carl Zeiss Meditec, Inc. USA), ocular inflammatory scores were evaluated at Day -1 (prior to LPS injection), at Day 0 (prior to vehicle or TA injection), then at 1, 2 and 3 days after injection,
For histologic grading, two independent observers masked to the treatment group evaluated each eye at each time point and the average resulting scores for each animal were used for analysis, Parametric normally distributed data (i.e., IOP, ERG, retinal thickness, cell counts, protein concentration) were compared by time point for each group using 1-way ANOVA models with Tukey-Kramer post-hoc analysis. For non-parametric data (i.e., clinical scores, histologic grades), Wilcoxon tests were conducted per animal by time point. Differences were considered significant at P<0.05. Results and probAilities were calculated using computerized statistical software (JMP 10, SAS Inc. Cary, N.C.).

[3] = Ocular and systemic pharmacokinetics of TA, SCS vs IVT (Example 10); format: in vivo, New Zealand White rabbit
Description: (§3) In this study, the ocular and systemic pharmacokinetics (PK) of triar cinolone acetonide (TA) in the New Zealand White rabbit following intravitreal […] injection or administration into the suprachoroidal space (SCS) using a hollow rnicroneedle were evaluated.
(§4) On Day 0, male rabbits (5 per group) received a single bilateral administration of 4 mg TA (100 μL Triesence triamcinolone formulationAlcon Labs) via SCS injection using a 33 g 750 μm microneedle or an IVT injection using a standard 30 g needle. The study design is shown below in Table 4.
(§5) Clinical observations, body weights, and intraocular pressure (IOP) were assessed up to 13 weeks post-dose. Plasma and ocular matrixes (aqueous humor (AH), lens, iris/ciliary body (ICB), vitreous humor (VH), sclera/choroid (SC), and retina) were sampled on Days 1, 14, 28, 56, and 91. Plasma (LLOQ 0.5 ng/mL) and ocular matrixes (LLOQ 2 -15 ng/mL) were analyzed using LC-MS/MS, and resulting data were assessed for noncompartmentat PK parameters.

[4] = Intraocular pressure after SCS TA (Example 9); format: in vivo, New Zealand White rabbit; settings: 3.2 or 5.2 mg TA SCS
Description: as §1, §2

[5] = tested on: model of acute posterior uveitis; assay: Porcine model of acute posterior uveitis, Hackett/McDonald scoring (Example 12); format: in vivo, pigs
Description: In this study, the effects of microneedle injection of triamcinolone acetonide (TA) into the suprachoroidal space (SCS) were compared to the effects of intravitreal (IVT) TA injection in a model of acute posterior uveitis.
Ten weanling pigs had IVT injection with BSS or lipopolysaccharide (LPS) followed 24 hours later with an injection of 0.2 mg or 2.0 mg of TA into the SCS or by IVT. The SCS was accessed using hollow microneedles provided herein. A measurement of each eye under the Hackett/McDonald scoring system was performed on −1, 0, and 3 days after treatment. Pigs were then euthanized, aqueous and vitreous humor collected for cell counts and protein levels, and the eyes were processed for histopathology.

[6] = Clinical observations and tolerability, SCS vs IVT TA (Example 10); format: in vivo, New Zealand White rabbit
Description: as §3, §4, §5

[7] = 3.2 mg TA/eye SCS, F, 13 weeks post administration
[8] = 5.2 mg TA/eye SCS, F, 13 weeks post administration
[9] = 5.2 mg TA/eye SCS, M, 13 weeks post administration

CC1(C)O[C@@H]2C[C@H]3[C@@H]4CCC5=CC(=O)C=C[C@]5(C)[C@@]4(F)[C@@H](O)C[C@]3(C)[C@]2(C(=O)CO)O1 [TA, triamcinolone acetonide]
Conjunctival congestion (slight, transient), animals with finding [1, 7]: 2
Conjunctival discharge (slight, transient), animals with finding [1, 7]: 2
Corneal Staining (slight, transient), animals with finding [1, 7]: 1
Hyperemia (severe, transient), animals with finding [1, 7]: 1
Lens Defect (anatomic defect unrelated to administration), animals with finding [1, 7]: 1
Corneal Staining (slight, transient), animals with finding ([1]; 3.2 mg TA/eye SCS, M, 13 weeks post administration): 1
Conjunctival discharge (slight, transient), animals with finding [1, 8]: 1
Corneal Staining (slight, transient), animals with finding [1, 8]: 2
Conjunctival congestion (slight, transient), animals with finding [1, 9]: 1
Corneal Staining (slight, transient), animals with finding [1, 9]: 4
adverse effects on clinical observations, body weight, or ophthalmic examinations ([1]; 3.2 or 5.2 mg TA SCS): no adverse effects
adverse effects related to treatment ([1]; 3.2 or 5.2 mg TA SCS): no observed adverse effects
findings during slit lamp biomicroscopy and fundus examination ([1]; 3.2 or 5.2 mg TA SCS, up to 13 weeks): generally mild and transient in nature
effectiveness in reducing acute ocular inflammation ([2]; 0.2 mg TA IVT): less effective
mean cumulative inflammatory scores compared with Groups 1, 3, 4 and 6 ([2]; 0.2 mg TA IVT (Group 5), 24 hours after treatment (Day 1)): significantly higher
mean cumulative inflammatory scores compared with SCS TA (Groups 3 and 4) and Group 1 ([2]; 0.2 mg TA IVT, 48 and 72 hours after treatment): significantly higher mean scores
mean cumulative inflammatory scores compared with Group 1 (BSS IVT/vehicle SCS) ([2]; 0.2 mg TA SCS (Group 3)): not significantly different
mean cumulative inflammatory scores compared with Group 1 (BSS IVT/vehicle SCS) ([2]; 2.0 mg TA SCS (Group 4)): not significantly different
effectiveness in reducing inflammation compared with 2.0 mg TA IVT injection ([2]; SCS injection of 0.2 mg and 2.0 mg of TA): as effective
decrease in effective dose when the drug is delivered to the SCS ([2]; SCS vs IVT): 10 fold
increase of AUC in VH, IVT TA compared with SCS TA ([3]; 4 mg TA): 52 fold
increase of AUC in aqueous Humor, IVT TA compared with SCS TA ([3]; 4 mg TA): 63 fold
increase of AUC in iris/ciliary body, IVT TA compared with SCS TA ([3]; 4 mg TA): 44 fold
increase of AUC in lens, IVT TA compared with SCS TA ([3]; 4 mg TA): 690 fold
increase of AUC in the sclera/choroid, SCS TA compared with IVT TA ([3]; 4 mg TA): 11 fold
increase of Cmax in VH, IVT TA compared with SCS TA ([3]; 4 mg TA): 4 fold
increase of Cmax in aqueous Humor, IVT TA compared with SCS TA ([3]; 4 mg TA): 250 fold
increase of Cmax in iris/ciliary body, IVT TA compared with SCS TA ([3]; 4 mg TA): 24 fold
increase of Cmax in lens, IVT TA compared with SCS TA ([3]; 4 mg TA): 290 fold
increase of Cmax in the sclera/choroid, SCS TA compared with IVT TA ([3]; 4 mg TA): 10 fold
AUC0-t ([3]; Aqueous Humor, IVT 4 mg TA): 8,500 ng · day/mL
Clast ([3]; Aqueous Humor, IVT 4 mg TA): 42 ng/mL
Cmax ([3]; Aqueous Humor, IVT 4 mg TA): 269 ng/mL
Tlast ([3]; Aqueous Humor, IVT 4 mg TA): 91 days
Tmax ([3]; Aqueous Humor, IVT 4 mg TA): 336 h
Clast ([3]; Aqueous Humor, SCS 4 mg TA): 16 ng/mL
Cmax ([3]; Aqueous Humor, SCS 4 mg TA): 16 ng/mL
Tlast ([3]; Aqueous Humor, SCS 4 mg TA): 28 days
AUC0-t ([3]; Iris/Ciliary body, IVT 4 mg TA): 40,900,000 ng · day/mL
Clast ([3]; Iris/Ciliary body, IVT 4 mg TA): 463,000 ng/mL
Cmax ([3]; Iris/Ciliary body, IVT 4 mg TA): 1,260,000 ng/mL
Tlast ([3]; Iris/Ciliary body, IVT 4 mg TA): 91 days
Tmax ([3]; Iris/Ciliary body, IVT 4 mg TA): 24 h
AUC0-t ([3]; Iris/Ciliary body, SCS 4 mg TA): 1,190,000 ng · day/mL
AUC0-∞ ([3]; Iris/Ciliary body, SCS 4 mg TA): 1,190,000 ng · day/mL
Clast ([3]; Iris/Ciliary body, SCS 4 mg TA): 247 ng/mL
Cmax ([3]; Iris/Ciliary body, SCS 4 mg TA): 50,200 ng/mL
T1/2 ([3]; Iris/Ciliary body, SCS 4 mg TA): 220 h
Tlast ([3]; Iris/Ciliary body, SCS 4 mg TA): 91 days
Tmax ([3]; Iris/Ciliary body, SCS 4 mg TA): 24 h
AUC0-t ([3]; Lens, IVT 4 mg TA): 12,600,000 ng · day/mL
Clast ([3]; Lens, IVT 4 mg TA): 40,300 ng/mL
Cmax ([3]; Lens, IVT 4 mg TA): 540,000 ng/mL
Tlast ([3]; Lens, IVT 4 mg TA): 91 days
Tmax ([3]; Lens, IVT 4 mg TA): 336 h
AUC0-t ([3]; Lens, SCS 4 mg TA): 27,400 ng · day/mL
Clast ([3]; Lens, SCS 4 mg TA): 9 ng/mL
Cmax ([3]; Lens, SCS 4 mg TA): 1,870 ng/mL
Tlast ([3]; Lens, SCS 4 mg TA): 91 days
Tmax ([3]; Lens, SCS 4 mg TA): 24 h
AUC0-t ([3]; Retina, IVT 4 mg TA): 25,100,000 ng · day/mL
AUC0-∞ ([3]; Retina, IVT 4 mg TA): 26,300,000 ng · day/mL
Clast ([3]; Retina, IVT 4 mg TA): 41,500 ng/mL
Cmax ([3]; Retina, IVT 4 mg TA): 781,000 ng/mL
T1/2 ([3]; Retina, IVT 4 mg TA): 504 h
Tlast ([3]; Retina, IVT 4 mg TA): 91 days
Tmax ([3]; Retina, IVT 4 mg TA): 336 h
AUC0-t ([3]; Retina, SCS 4 mg TA): 24,600,000 ng · day/mL
Clast ([3]; Retina, SCS 4 mg TA): 2,600 ng/mL
Cmax ([3]; Retina, SCS 4 mg TA): 907,000 ng/mL
Tlast ([3]; Retina, SCS 4 mg TA): 91 days
Tmax ([3]; Retina, SCS 4 mg TA): 24 h
quantifiability of TA in ocular matrixes ([3]; SCS and IVT, 4 mg TA): quantifiable in all ocular matrixes through Day 91
AUC0-t ([3]; Sclera/choroid, IVT 4 mg TA): 8,640,000 ng · day/mL
AUC0-∞ ([3]; Sclera/choroid, IVT 4 mg TA): 10,300,000 ng · day/mL
Clast ([3]; Sclera/choroid, IVT 4 mg TA): 27,100 ng/mL
Cmax ([3]; Sclera/choroid, IVT 4 mg TA): 235,000 ng/mL
T1/2 ([3]; Sclera/choroid, IVT 4 mg TA): 1030 h
Tlast ([3]; Sclera/choroid, IVT 4 mg TA): 91 days
Tmax ([3]; Sclera/choroid, IVT 4 mg TA): 336 h
AUC0-t ([3]; Sclera/choroid, SCS 4 mg TA): 101,000,000 ng · day/mL
AUC0-∞ ([3]; Sclera/choroid, SCS 4 mg TA): 101,000,000 ng · day/mL
Clast ([3]; Sclera/choroid, SCS 4 mg TA): 34,000 ng/mL
Cmax ([3]; Sclera/choroid, SCS 4 mg TA): 2,860,000 ng/mL
T1/2 ([3]; Sclera/choroid, SCS 4 mg TA): 264 h
Tlast ([3]; Sclera/choroid, SCS 4 mg TA): 91 days
Tmax ([3]; Sclera/choroid, SCS 4 mg TA): 24 h
AUC0-t ([3]; Vitreous Humor, IVT 4 mg TA): 77,600,000 ng · day/mL
AUC0-∞ ([3]; Vitreous Humor, IVT 4 mg TA): 85,500,000 ng · day/mL
Clast ([3]; Vitreous Humor, IVT 4 mg TA): 218,000 ng/mL
Cmax ([3]; Vitreous Humor, IVT 4 mg TA): 1,640,000 ng/mL
T1/2 ([3]; Vitreous Humor, IVT 4 mg TA): 600 h
Tlast ([3]; Vitreous Humor, IVT 4 mg TA): 91 days
Tmax ([3]; Vitreous Humor, IVT 4 mg TA): 24 h
AUC0-t ([3]; Vitreous Humor, SCS 4 mg TA): 3,460,000 ng · day/mL
Clast ([3]; Vitreous Humor, SCS 4 mg TA): 10 ng/mL
Cmax ([3]; Vitreous Humor, SCS 4 mg TA): 287,000 ng/mL
Tlast ([3]; Vitreous Humor, SCS 4 mg TA): 91 days
Tmax ([3]; Vitreous Humor, SCS 4 mg TA): 24 h
systemic exposure ([3]; either route (IVT or SCS), 4 mg TA): minimal
TA peak concentration in plasma ([3]; peaked on Day 1, both groups (SCS and IVT, 4 mg TA)): 4 ng/mL
effect on IOP [4]: No effect
dose of TA administered to the SCS giving a reduction in inflammation within 3 days, as share of the dose required intravitreally ([5]; 0.2 mg SCS vs 2 mg IVT): 10%
inflammatory response (mean Hackett/McDonald ocular scores) ([5]; 2 mg TA SCS after LPS, vs vehicle): significant reduction; also recorded: significantly reduces
adverse effects related to treatment or method of administration ([6]; SCS and IVT, 4 mg TA): no observed adverse effects
tolerability ([6]; both IVT and SCS TA, 4 mg, albino rabbit): well tolerated
